From US8288111B2 (Abbott Laboratories, priority 2007, dated 2012)

Columns and labels:
[1] = times greater than cyclosporine CsA; cited from earlier work
[2] = tested on: anti-CsA monoclonal antibody; assay: Abbott TDx Monoclonal CsA immunoassay (FPIA) cross-reactivity; type: binding, mouse; conditions: 200 ng/mL cyclosporine; metabolite 250 ng/mL
Description: (§1) Antibody. The anti-CsA monoclonal antibody used in the […]® assay is immobilized on Goat Anti-Mouse (GAM) antibody coated magnetic microparticles. The same anti-CsA antibody is used in soluble form in the Abbott TDx and AxSYM® assays (Abbott Laboratories, Abbott Park, Ill.). Soluble mouse anti-CsA antibody is added directly to GAM microparticles and non-covalent binding occurs by antibody-mediated binding. GAM antibody is passively bound to magnetic polystyrene microparticles and then treated with a water-soluble carbodiimide to fix the antibody on the particle. GAM particles can be prepared using ordinary skill in the art.
(§2) FPIA test methods. Abbott TDx Monoclonal and AxSYM® immunoassays were measured on specimens and calibrators using procedures described in the package inserts. Specimens were extracted with a combination of saponin, organic solvent and Zinc sulfate and precipitated protein was centrifuged down. The clear supernatant was tested using assay reagents (Tracer, Antibody and Assay Diluent). However, in Example 4, the different extraction (pretreatment) methods of TDx and AxSYM® were employed, but all results were generated on […]®.

[3] = tested on: anti-CsA monoclonal antibody; assay: Abbott AxSYM CsA immunoassay (FPIA) cross-reactivity; type: binding, mouse; conditions: 200 ng/mL cyclosporine; metabolite 250 ng/mL
Description: as §1, §2
Cross-reactivities for AM9 (500 ng/mL) were 12.6% for AxSYM®, 25% for CEDIA, and 6% for EMIT.

cyclosporine antibody = assay: Dade RxLFlex cyclosporine assay cross-reactivity; type: binding; conditions: 200 ng/mL cyclosporine; metabolite 1000 ng/mL

SMILES	in vivo potency relative to cyclosporine CsA [1]	Abbott TDx cross-reactivity [2]	Abbott AxSYM cross-reactivity [3]	Dade RxLFlex cross-reactivity (cyclosporine antibody)
C=CC[C@@H]1/C=C(\C)C[C@H](C)C[C@H](OC)[C@H]2O[C@@](O)(C(=O)C(=O)N3CCCC[C@H]3C(=O)O[C@H](/C(C)=C/[C@@H]3CC[C@@H](O)[C@H](OC)C3)[C@H](C)[C@@H](O)CC1=O)[C@H](C)C[C@@H]2OC [Tacrolimus, tacrolimus]	50-100 times			
CC[C@@H]1NC(=O)[C@H]([C@H](O)[C@H](C)C/C=C/CO)N(C)C(=O)[C@H](C(C)C)N(C)C(=O)[C@H](CC(C)C)N(C)C(=O)[C@H](CC(C)(C)O)N(C)C(=O)[C@@H](C)NC(=O)[C@H](C)NC(=O)[C@H](CC(C)C)N(C)C(=O)[C@H](C(C)C)NC(=O)[C@H](CC(C)C)N(C)C(=O)CN(C)C1=O [AM19]		not statistically significant	not statistically significant	2-3%
